Data on one compound can be found in paper PMC12794186, “Covalent Alkynylpyridopyrimidinones Targeting Cysteine 775 of the Epidermal Growth Factor Receptor Overcome Resistance to Current Therapies” (Journal of Medicinal Chemistry, 2025).

The structures appear in SMILES notation. Where two headings read alike, the source gives them in different places.

For test [1], the target named is recombinant doubly mutated EGFR L858R, T790M kinase domain (mLT-EGFR) (Homo sapiens, UniProt P00533, L858R/T790M). In words: Kinetic analysis (AssayQuant). Format: biochemical. The conditions noted are these: read-out: KI app. Here is the method:
Measurement of K I, K inact and K inact/K I was carried out by AssayQuant Technologies inc.

In test [2] the test system is EGFR phosphorylation (Tyr1068) in H1975 (L858R, T790M) cells. Nature of the test: HTRF cellular EGFR phosphorylation. Format: cell-based. As to conditions: Homo sapiens, NCI-H1975; HTRF, mean ± SD of 4 experiments; read-out: H1975 pEGFR IC50. As to the method:
Cells were plated at 20,000 cells per well in 96-well plates and placed at 37 °C with 5% CO2. Compounds were reconstituted in DMSO. Once adhered (after 24 h), cells were treated with compounds at a final concentration of 0.1% DMSO in media. Compounds were added to duplicate wells and incubated 37 °C for 3 h with 5% CO2. For A431 cells 0.5 h before the end of incubation; 100 ng/mL of EGF (Thermo Fisher, Cat. No. PHG0311) was added to all compound-treated cells as well as control. Compound and media were removed from the cells, and then 50 μL of HTRF lysis buffer was added (lysis buffer was diluted from 4× stock to 1× in deionized (DI) water, with 1% blocking agent also added). Cells were lysed on a plate shaker (2000 rpm) for 30 min at room temperature. pEGFR expression was assessed using the Human Phospho-EGFR (Tyr1068) cellular detection kit (Revvity, Cat. No. 64EG1PEH). Total EGFR expression was monitored using the Human Total EGFR cellular detection kit (Revvity, Cat. No. 64NG1PEH) as per the manufacturer’s instructions. […] Results were calculated as the ratio of pEGFR/total EGFR and then the percentage of 0 μM control.

The test system of test [3] is EGFR phosphorylation (Tyr1068) in A431 (WT-EGFR) cells. In words: HTRF cellular EGFR phosphorylation. The conditions noted are these: Homo sapiens, A-431, mean ± SD of 4 experiments, read-out: A431 pEGFR IC50. It is filed as cell-based. Here is the method: Cells were plated at 20,000 cells per well in 96-well plates and placed at 37 °C with 5% CO2. Compounds were reconstituted in DMSO. Once adhered (after 24 h), cells were treated with compounds at a final concentration of 0.1% DMSO in media. Compounds were added to duplicate wells and incubated 37 °C for 3 h with 5% CO2. For A431 cells 0.5 h before the end of incubation; 100 ng/mL of EGF (Thermo Fisher, Cat. No. PHG0311) was added to all compound-treated cells as well as control. Compound and media were removed from the cells, and then 50 μL of HTRF lysis buffer was added (lysis buffer was diluted from 4× stock to 1× in deionized (DI) water, with 1% blocking agent also added). Cells were lysed on a plate shaker (2000 rpm) for 30 min at room temperature. pEGFR expression was assessed using the Human Phospho-EGFR (Tyr1068) cellular detection kit (Revvity, Cat. No. 64EG1PEH). Total EGFR expression was monitored using the Human Total EGFR cellular detection kit (Revvity, Cat. No. 64NG1PEH) as per the manufacturer’s instructions. Fluorescence emission was read at two different wavelengths (665 and 620 nm) on a PHERAstar microplate reader (BMG Labtech). Results were calculated as the ratio of pEGFR/total EGFR and then the percentage of 0 μM control.
Background: TR-FRET usually uses a lanthanide donor and a delayed reading to cut background.

Test [4] concerns EGFR phosphorylation (Tyr1068) in H1975 (L858R, T790M) cells. Nature of the test: Western blot of EGFR phosphorylation. Format: cell-based. The conditions noted are these: H1975, 4 h exposure. Background: A western blot detects proteins with antibodies after separation by electrophoresis.
Method: Cells, seeded on the previous day, were incubated with test compound at the indicated concentrations or DMSO (0.1%) for 4 h. […] Preparation of lysates and Western blotting was performed twice as independent experiments.
Samples were prepared by diluting lysates in PBS to the desired concentration and before adding 4X XT sample buffer. Samples were then denatured at 98 °C for 5 min and then centrifuged to remove the residue. […] The quality of transfer was assessed using Ponceau S Stain (Sigma-Aldrich Cat. No. p7170).
Loading control antibodies were prepared in 5% milk w/v with 1× TBS/T (0.1 v/v) solution at a determined optimum concentration.
Proteins were detected using Clarity ECL substrate (Bio-Rad) and imaged using a Licor Odyssey FC.
Test [5] concerns BaF3 EGFR L858R/T790M cells. In words: Ba/F3 growth inhibition (CellTiter Glo). Format: cell-based, Murine. The conditions noted are these: BaF3, absence of IL-3, 72 h, read-out: LT: L858R/T790M GI50. As to the method:
(§1) Growth inhibition in Ba/F3 cell lines were assessed in a 384-well format by CellTiter Glo assay (Promega) using the manufacturer’s recommended protocol. Cells were seeded on the day of compound addition and assessed following 72 h incubation including a vehicle only control. Ba/F3 EGFR-WT cells required supplementation with EGF (100 ng/mL, ThermoFisher, Cat No. PHG0311).
For orientation: Cellular ATP, detected with luciferase, serves as a proxy for viable cell number.

Test [6] relates to BaF3 EGFR L858R/T790M/C775A cells. In words: Ba/F3 growth inhibition (CellTiter Glo). As to conditions: Mus musculus, BaF3, absence of IL-3, 72 h, read-out: LTC2: L858R/T790M/C775A GI50. It is filed as cell-based, Murine. Here is the method:
as §1

The next test relates to BaF3 EGFR WT cells. In words: Ba/F3 growth inhibition (CellTiter Glo). Format: cell-based, Murine. As to conditions: Mus musculus, 72 h. Here is the method:
as §1

For test [7], the system named is BaF3 EGFR del19/T790M cells. Nature of the test: Ba/F3 growth inhibition (CellTiter Glo). It is filed as cell-based, Murine. The conditions noted are these: Mus musculus, BaF3, absence of IL-3, 72 h, read-out: dT: del19/T790M GI50. Here is the method:
as §1

In another test the test system is A431 (WT-EGFR) cells. In words: Adherent cell growth inhibition (CyQUANT). It is filed as cell-based. As to conditions: Homo sapiens, A-431; replenishment of compound every 72 h. Here is the method: (§2) For adherent cell assays, each cell line was plated on day 0 in a 96-well plate at a density known to allow for exponential growth over 72 h. After 24 h, the compounds were diluted to the required concentrations in DMEM + 10% FBS media, maintaining a consistent final DMSO concentration of 0.1%. […] Growth inhibition was then assessed using a CyQUANT Direct Cell Proliferation assay (Invitrogen Cat No. C35011) following the manufacturer’s instructions. Fluorescence intensity (ex/em 480/520 nm) values were acquired using a PHERAstar microplate reader reader (BMG Labtech) and values were expressed as a percentage of the average DMSO treated value.

Test [8] relates to H1975 (L858R, T790M) cells. Nature of the test: Adherent cell growth inhibition (CyQUANT). It is filed as cell-based. As to conditions: Homo sapiens, NCI-H1975; replenishment of compound every 72 h; read-out: H1975 EGFR GI50. Here is the method: as §2
In another test the target is mLTC-EGFR (Homo sapiens, UniProt P00533, C797S/L858R/T790M). In words: Intact protein mass spectrometry, covalent adduct formation. Format: binding. As to conditions: intact protein mass spectrometry.
The test system of the next test is panel of 394 kinases. In words: Kinase selectivity panel, summary. Format: binding. As to conditions: 1.0 μM.
The next test has as its system TYK2. Nature of the test: Kinase selectivity panel. Format: binding. The conditions noted are these: 1.0 µM.

What is called IC50 is the point on the concentration scale where inhibition reaches its midpoint. `C#Cc1cc(=O)n(-c2ccccc2)c2nc(Nc3ccc(N(C)CCN(C)C)cc3)ncc12` [Compound 7, 2-((4-((2-(Dimethylamino)ethyl)(methyl)amino)phenyl)amino)-5-ethynyl-8-phenylpyrido[2,3-d]pyrimidin-7(8H)-one]: the Ki in test [1] stood at 22 ± 1.3 nM. For the same compound, the IC50 is 140 ± 21 nM in test [2] and 4.1 µM in test [3]. The “concentration eliciting dose-dependent reduction in EGFR phosphorylation (Western blot)” value in [4] is reported as at least 100 nM. In addition, the GI50 in [5] is under 100 nM; in [5] (Mus musculus, Ba/F3 EGFR, 72 h), 50 ± 3.2 nM; in test [6], 1500 nM; in the test with BaF3 EGFR WT cells, 1100 nM; in test [7], 49 ± 6 nM; with A431 (WT-EGFR) cells, 2700 ± 1100 nM. Further, the GI50 in test [8] came out at 1100 ± 1100 nM. Moreover, the “covalent adduct formation, in words” value on mLTC-EGFR is given as “formed only a single adduct”. The “number of kinases showing >75% inhibition” value with panel of 394 kinases is 10. In addition, in the test with TYK2, the “Mean (Percent Control)” value is 58.5 Percent Control.
